Measurements taken from US7326809B2, “Salts of 4- or 5-aminosalicylic acid” (Antibe Therapeutics Inc., priority 2004, dated 2008).
Structures can show the parent of a compound that is named as a salt. Where two headings read alike, the source gives them in different places.

Experiments:
[1] = tested on: TNF-α, IFN-γ, IL-1, IL-2, IL-10, IL-12 p40, RANTES, COX-1, COX-2, eNOS, iNOS mRNA; experiment: mRNA expression (RT-PCR) of inflammatory cytokines and mediators in colon, TNBS-induced colitis in mice; type: in vivo; conditions: equimolar to mesalamine 50 mg/kg
Description: The same model was used as described above. In this example, the effects of mesalamine (50 mg/kg) were compared to those of equimolar doses of L-arginine salt of mesalamine. Tissues were processed for measurement of a number of genes for inflammatory cytokines and other mediators.
In particular, mRNA expression in mice of tumour necrosis factor-alpha (TNF-α), interferon gamma (IFN-γ), colonic interleukin (IL)-1, IL-2, IL-10, IL-12 p40, RANTES, cyclooxygenase (COX)-1, COX-2, constitutive endothelial nitric oxide synthase (eNOS), and inducible NOS (iNOS) was measured as described in Wallace et al. (1999) Gastroenterology 117: 557-566, incorporated herein by reference.
Briefly, reverse transcription-polymerase chain reaction (RT-PCR) was used to detect and quantify mRNA of the particular cytokine/chemokine/enzyme. Glyceraldehyde-3-phosphate dehydrogenase (GAPDH) was used as the “housekeeping gene” for mRNA expression (i.e., as an internal control). For each sample, the ratio of the amplification of the target gene to the amplification of GAPDH (expression of each is measured by performing densitometry on gels) was obtained. Comparisons were then made between the relative amplification (expression) of the target gene in tissues for the treatment groups in comparison to the expression in tissues from healthy controls. Thus, the data shown in the following FIGS. represent the relative expression of the target gene (normalized to GAPDH expression) as a ratio to the expression in healthy controls.

TNBS-induced colitis [2] = experiment: TNBS-induced colitis in rats: edema, MPO activity, body weight; type: in vivo, male, Wistar rats; conditions: every 12 h for 4 days, salt at 50% of the dose equimolar to mesalamine 50 mg/kg
Description: Colitis was induced in male, Wistar rats by intracolonic administration of TNBS, as outlined in Wallace et al. (1990), Am J Physiol. 258: G527-G534, incorporated herein by reference. Briefly, beginning 1 h later and continuing at 12 h intervals for 4 days, the rats were treated with vehicle (1% CMC), mesalamine (50 mg/kg), L-arginine (equimolar) or L-arginine salt of mesalamine (50% of the equimolar dose). Changes in body weight were recorded, as were incidences of mortality. At the end of the study, the colon was excised and the thickness of the bowel wall was measured with digital callipers, as an index of edema. Also, a sample of tissue was processed for measurement of myeloperoxidase (MPO) activity, as an index of granulocyte infiltration.

[3] = In vitro anti-oxidant assay with a coloured, stable free radical; type: biochemical; conditions: for % Free Radical Scavenging: in ethanol, means of quadruplicate experiments; for IC50: concentration that reduced the levels of the free radical by 50%, read-out: 50% Inhibitory Concentrations IC50
Description: One of the mechanisms through which mesalamine is thought to provide benefit in the treatment of inflammatory bowel disease is through scavenging of free radicals. Therefore, the anti-oxidant activity of mesalamine was compared to that of L-arginine salt of mesalamine and L-arginine. Anti-oxidant activity of the test drugs was measured in an in vitro assay that employs a coloured, stable free radical as outlined in Vaananen, P. M. et al. (1992) Inflammation 16: 227-240 and Smith, R. C. et al. (1987) Free Rad. Biol. Med. 3: 251-257, both incorporated herein by reference. Drugs with anti-oxidant activity reduce this reagent resulting in a change in colour, which can be detected spectrophotometrically. A range of concentrations of L-arginine salt of mesalamine, mesalamine and L-arginine, all prepared in ethanol, were tested and the concentration that reduced the levels of the free radical by 50% were calculated.

TNBS-induced colitis [4] = experiment: TNBS-induced colitis in mice: disease activity score and MPO activity; type: in vivo, Balb/c mice; conditions: oral every 12 h for 5 days, dose equimolar to mesalamine 50 mg/kg
Description: A standard experimental animal model of colitis induced by intracolonic administration of 2,4,6-trinitrobenzene sulfonic acid (TNBS) to mice is used in the following example. A detailed description of this model has been published (Santucci et al. (2003) Gastroenterology 124:1381-94) and is incorporated herein by reference. Briefly, 6-8 week old Balb/c mice were given TNBS intracolonically at a dose of 1.5 mg in 0.1 mL of 30% ethanol. The mice were randomized to the various treatment groups (n=6 per group). Beginning one hour later and continuing every 12 h for 5 days, the mice were treated orally with vehicle (1% carboxymethylcellulose (CMC)), mesalamine (50 mg/kg) or with an equimolar dose of L-arginine salt of mesalamine.
The mice were evaluated (blindly) on the final day of the study for the presence of diarrhea and fecal occult blood, and their body weights were measured. […] The mice were then sacrificed and a sample of the colon was excised for measurement of myeloperoxidase (MPO) activity, an indicia for granulocyte infiltration.

[5] = following oral ingestion of 500 mg; cited from earlier work

| Structure (SMILES) | % Free Radical Scavenging ([3]; 0.03 mM) [%] | % Free Radical Scavenging ([3]; 0.1 mM) [%] | % Free Radical Scavenging ([3]; 0.3 mM) [%] | % Free Radical Scavenging ([3]; 1 mM) [%] | % Free Radical Scavenging ([3]; 3 mM) [%] | % Free Radical Scavenging ([3]; 10 mM) [%] | IC50 [3] [µM] | further results |
| --- | --- | --- | --- | --- | --- | --- | --- | --- |
| N=C(N)NCCC[C@H](N)C(=O)O.Nc1ccc(O)c(C(=O)O)c1 [L-arginine salt of mesalamine, L-arginine salt of 5-aminosalicylic acid] | 5.2 | 23.9 | 57.7 | 96.3 | 100 | 100 | – | COX-1 mRNA expression ([1]; colonic): suppressed; COX-2 mRNA expression ([1]; colonic): suppressed; eNOS mRNA expression ([1]; colonic): suppressed; iNOS mRNA expression ([1]; colonic): suppressed; IL-10 mRNA expression [1]: did not suppress; expression of mRNA for several pro-inflammatory cytokines and chemokines [1]: suppressed; mRNA expression of inflammatory cytokines and other mediators, every endpoint (FIGS. 3 to 8) ([1]; normalized to GAPDH, ratio to healthy controls): superior to mesalamine in every endpoint; body weight loss (TNBS-induced colitis [2]): superior to both mesalamine and L-arginine; colitis-associated edema (thickness of the bowel wall) (TNBS-induced colitis [2]): superior to both mesalamine and L-arginine; myeloperoxidase (MPO) activity (granulocyte infiltration) (TNBS-induced colitis [2]): superior to both mesalamine and L-arginine; anti-oxidant potency relative to mesalamine ([3]; from IC50 values): about three-times more potent; myeloperoxidase (MPO) activity (granulocyte infiltration) (TNBS-induced colitis [4]; colon sample): superior to mesalamine alone in reducing MPO activity; disease activity score (TNBS-induced colitis [4]; 0 to 4 scale): superior to mesalamine alone in reducing the disease |
| Nc1ccc(O)c(C(=O)O)c1 [Mesalamine, 5-aminosalicylic acid] | 2.2 | – | 23.6 | 50.3 | 96.1 | 100 | 1250 | luminal concentrations of mesalamine in the colon [5]: 1 mM |
| Nc1ccc(O)c(C(=O)O)c1 [L-arginine salt of mesalamine, L-arginine salt of 5-aminosalicylic acid] | – | – | – | – | – | – | – | IC50 ([3]; listed as ATB-428): 407 µM |
| N=C(N)NCCC[C@H](N)C(=O)O [L-arginine] | 0 | 0 | 0 | 0 | 0 | 0 | > 10000 | anti-oxidant activity ([3]; concentrations of up to 10 mM): did not exhibit any anti-oxidant activity; anti-oxidant activity (in words) ([3]; summary statement): very little anti-oxidant activity; free radical scavenging effects (in words) ([3]; summary statement): no free radical scavenging effects |
